In publication PMC9057582, “HIF inhibitor 32-134D eradicates murine hepatocellular carcinoma in combination with anti-PD1 therapy” (The Journal of Clinical Investigation, 2022):

Tested on: Hep3B tumor xenograft
Experiment: Hep3B tumor xenograft growth in nude mice
Type: in vivo, nude (nu/nu) mice
Protocol: Hep3B cells were injected subcutaneously into nude (nu/nu) mice and when tumors reached a volume of 150 mm^3 (designated day 1), the mice were treated with vehicle or 32-134D by daily intraperitoneal injection. […] Treatment with 32-134D for 17 days had no effect on mouse appearance, behavior, or body weight (Supplemental Figure 4B). We treated additional mice with 32-134D at a dose of 40 mg/kg versus vehicle and confirmed inhibition of tumor growth without effects on body weight (Supplemental Figure 5, A–C).
Figure 2 Effect of 32-134D on Hep3B tumor xenograft growth and vascularization. (A) Female nude mice received a subcutaneous injection of […] Hep3B cells. When tumors reached a volume of 150 mm^3 (designated treatment day 1), the mice were randomized to receive a daily intraperitoneal injection of 32-134D at a dose of 0 (blue), 20 (black), 40 (red), or 80 (green) mg/kg. Data are presented as mean tumor volume (± SEM; n = 4 each). **P < 0.01, ***P < 0.001 (ANOVA with Bonferroni’s post hoc test). (B) Gross pathology of tumors harvested from vehicle-treated (top panel) and 32-134D–treated (bottom panel) mice. (C) Nuclear extracts prepared from tumors were assayed by immunoblotting using antibodies against the indicated proteins. (D) Total RNA was isolated from tumor tissue and analyzed by RT-qPCR using primers specific for the indicated mRNAs and results (mean ± SEM, n = 4) were normalized to the mean value for tumors from vehicle-treated mice. (E) ELISA for the indicated proteins was performed using aliquots of tumor lysates (mean ± SEM; n = 3–4 tumors each). *P < 0.05 (Mann-Whitney test). (F) Formalin-fixed and paraffin-embedded tumor sections were analyzed by immunohistochemistry using an antibody against CD31 to identify vascular endothelial cells. Scale bar: 100 μm. The total CD31^+ vessel area per field was quantified using ImageJ (mean ± SEM; n = 4 tumors with 5 sections per tumor). *P < 0.05 (Student’s t test).
Female nude mice (NCI Athymic NCr-nu/nu) and male C57L mice were purchased from Charles River and The Jackson Laboratory, respectively. Hep3B (8 × 10^6) and Hepa1-6 (1 × 10^7) cells were resuspended in PBS and Matrigel (1:1, vol/vol) and implanted subcutaneously in 6- to 8-week-old mice, and tumor volume was calculated as V = abc × 0.52. For Hep3B tumor studies, once tumors reached 100 to 150 mm^3, mice were randomized into groups to receive daily intraperitoneal injection of either 32-134D or vehicle only (20% PEG-400, 10% Cremophor EL, 10% ethanol in PBS). For Hepa1-6 tumors, mice were randomized to receive treatment once tumors became palpable (tumor eradication experiment) or reached a volume of 200 mm^3 (harvesting of tumors for flow cytometry and analysis of RNA and protein expression). Tumors were harvested 4 hours after the last treatment (see Supplemental Table 6 for reagent sources).
Supplemental Figure 4. […]
Female nude mice received a subcutaneous injection of 8 x 10^6 Hep3B cells. […] (A) Tumor volumes were determined every other day. […] (B) Body weights of tumor-bearing mice were measured every other data and are presented as mean + SEM (n = 3-4 per group). […]
Supplemental Figure 5. […] (A-D) Tumor bearing mice were treated with daily intraperitoneal injection of vehicle (black) or 32-134D (red; 40 mg/kg) and individual (A) and mean (B) tumor volumes as well as body weight (C) were determined every other day and mean tumor weights (D) were determined on day 17 (mean + SEM, n =4). *P < 0.05 by ANOVA. […]

**Q.** For `Brc1ccc2c(-c3csc(-c4c[nH]c5c(Br)cccc45)n3)c[nH]c2c1` [Compound 32-134D], which tumor xenograft growth (20 mg/kg daily intraperitoneal, P < 0.01 vs vehicle) is on record?
**A.** partial growth inhibition

**Q.** What about the tumor xenograft growth (40 mg/kg daily intraperitoneal, P < 0.001 vs vehicle) of the same compound?
**A.** maximal growth inhibition

**Q.** And the “tumor mass at harvest” value (40 mg/kg, day 17, P < 0.05)?
**A.** significantly decreased

**Q.** What about the tumor xenograft growth (80 mg/kg daily intraperitoneal, P < 0.001 vs vehicle) of the same compound?
**A.** maximal growth inhibition

**Q.** And the “mouse appearance, behavior, or body weight” value (treatment for 17 days)?
**A.** no effect
